Data as given in ChEMBL document CHEMBL3046048, “Design and synthesis of new 2,4,5-triarylimidazole derivatives as selective cyclooxygenase (COX-2) inhibitors” (Med Chem Res, 2012).
pIC50: −log10 of the molar value.

Target: T1, Prostaglandin G/H synthase 1 (Ovis aries, UniProt P05979)
T1 sequence (P05979 whole entry): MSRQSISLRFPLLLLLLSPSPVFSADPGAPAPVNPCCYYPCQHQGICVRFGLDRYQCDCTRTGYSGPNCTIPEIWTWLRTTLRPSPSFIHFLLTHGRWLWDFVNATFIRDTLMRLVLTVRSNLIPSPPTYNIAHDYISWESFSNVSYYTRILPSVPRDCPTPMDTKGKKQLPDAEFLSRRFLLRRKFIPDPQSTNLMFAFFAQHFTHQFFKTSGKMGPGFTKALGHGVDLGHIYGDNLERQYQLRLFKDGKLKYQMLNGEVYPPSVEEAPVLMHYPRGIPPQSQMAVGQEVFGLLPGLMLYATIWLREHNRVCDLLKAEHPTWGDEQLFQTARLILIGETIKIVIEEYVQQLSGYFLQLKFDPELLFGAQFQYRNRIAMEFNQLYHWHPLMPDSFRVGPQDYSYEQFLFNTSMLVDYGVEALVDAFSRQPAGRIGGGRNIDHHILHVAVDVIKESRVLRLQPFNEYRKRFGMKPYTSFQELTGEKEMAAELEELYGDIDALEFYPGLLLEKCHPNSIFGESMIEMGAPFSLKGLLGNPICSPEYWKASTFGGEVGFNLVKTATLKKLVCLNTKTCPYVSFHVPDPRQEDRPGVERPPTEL
Test: Inhibition of Ovis aries (sheep) COX1 using arachidonic acid as substrate using cyclic naphthalene hydrazide by chemiluminescence assay

pIC50	Compound
5.00	CS(=O)(=O)c1ccc(-c2nc(-c3ccccc3)[nH]c2-c2ccccc2)cc1
4.99	CS(=O)(=O)c1ccc(-c2nc(-c3ccc(Cl)cc3)[nH]c2-c2ccccc2)cc1
4.98	Cc1ccc(-c2nc(-c3ccc(S(C)(=O)=O)cc3)c(-c3ccccc3)[nH]2)cc1
4.95	CS(=O)(=O)c1ccc(-c2nc(-c3ccc(O)cc3)[nH]c2-c2ccccc2)cc1
4.95	CS(=O)(=O)c1ccc(-c2nc(-c3ccc(F)cc3)[nH]c2-c2ccccc2)cc1
4.98	CC(=O)Nc1ccc(-c2nc(-c3ccc(S(C)(=O)=O)cc3)c(-c3ccccc3)[nH]2)cc1
4.98	COc1ccc(-c2nc(-c3ccc(S(C)(=O)=O)cc3)c(-c3ccccc3)[nH]2)cc1
